Data taken from ChEMBL document CHEMBL3217461, “Synthesis of tetrazoleisoxazoline hybrids as a new class of tubulin polymerization inhibitors” (Medchemcomm, 2012).
The source made the active and inactive calls. No cut-off for these calls is given here.

Experiments:
[1] = tested on: A549; assay: Cell cycle arrest in human A549 cells assessed as accumulation at G2/M phase at 2 uM after 24 hrs using propidium iodide staining by flow cytometer analysis (reference value: 13.98%); assay type: functional
[2] = tested on: A549; assay: Cell cycle arrest in human A549 cells assessed as accumulation at G0 phase at 2 uM after 24 hrs using propidium iodide staining by flow cytometer analysis (reference value: 0.56%); assay type: functional
[3] = tested on: A549; assay: Cell cycle arrest in human A549 cells assessed as accumulation at S phase at 2 uM after 24 hrs using propidium iodide staining by flow cytometer analysis (reference value: 5.43%); assay type: functional
[4] = tested on: MDA-MB-231; assay: Cytotoxicity against human MDA-MB-231 cells after 48 hrs by MTT assay; assay type: functional, cell-based; conditions: MDA-MB-231, 48 h
[5] = tested on: A549; assay: Cell cycle arrest in human A549 cells assessed as accumulation at G1 phase at 2 uM after 24 hrs using propidium iodide staining by flow cytometer analysis (reference value: 80.03%); assay type: functional
[6] = tested on: A549; assay: Cytotoxicity against human A549 cells after 48 hrs by MTT assay; assay type: functional, cell-based; conditions: A549, 48 h
[7] = tested on: A549; assay: Induction of apoptosis in human A549 cells assessed as increase of caspase-3 expression at 2 uM after 2 hrs by Western blot analysis; assay type: functional, cell-based
[8] = biological target: T1, Tubulin (Homo sapiens) (UniProt P68371+Q9H4B7+P0DPH7+P68366+Q13509+Q71U36+P04350+Q3ZCM7+P07437+P68363+Q9BQE3+Q6PEY2+Q13885+Q9BVA1+Q9BUF5); assay: Inhibition of tubulin polymerization in human A549 cells assessed as microtubule network at 2 uM after 24 hrs by immunofluorescence microscopy analysis; assay type: cell-based
[9] = biological target: Tubulin (Bos taurus) (UniProt Q6B856+Q862L2+Q862F3); assay: Displacement of [3H]-colchicine from purified bovine brain tubulin at 5 uM after 1 hr by scintillation proximity assay
[10] = biological target: T1, Tubulin (Homo sapiens); assay: Inhibition of tubulin (unknown origin) at 2 uM after 30 to 60 mins by HTS assay; assay type: protein-complex assay
[11] = biological target: T1, Tubulin (Homo sapiens); assay: Inhibition of gamma-tubulin in human A549 cells assessed as decrease in protein organization pattern at 2 uM after 24 hrs by immunofluorescence analysis; assay type: cell-based

COc1cc(-n2nnnc2-c2ccc(OCC3CC(c4ccc(C(F)(F)F)cc4)=NO3)c(N)c2)cc(OC)c1OC (stereo unspecified)
Activity [1]: 45.61% | Activity [2]: 7.14% | Activity [3]: 4.17% | IC50 [4]: 1.75 µM | Activity [5]: 43.08% | IC50 [6]: 1.22 µM

COc1ccc(C2=NOC(COc3ccc(-c4nnnn4-c4cc(OC)c(OC)c(OC)c4)cc3N)C2)cc1N (stereo unspecified)
Activity [1]: 17.03% | Activity [2]: 1.68% | Activity [3]: 5.42% | IC50 [4]: 3 µM | Activity [5]: 75.87% | IC50 [6]: 2.08 µM

COc1ccc(/C=C\c2cc(OC)c(OC)c(OC)c2)cc1O [COMBRETASTATIN A4]
Activity [1]: 84.71% | Activity [2]: 1.79% | Activity [3]: 6.03% | IC50 [4]: 0.1 µM | Activity [5]: 7.47% | IC50 [6]: 0.55 µM

COc1cc(C2=NOC(COc3ccc(-c4nnnn4-c4cc(OC)c(OC)c(OC)c4)cc3N)C2)cc(OC)c1OC (stereo unspecified)
Activity [1]: 20.72% | Activity [2]: 1.74% | Activity [3]: 4.92% | IC50 [4]: 3.23 µM | Activity [5]: 72.62% | IC50 [6]: 2.06 µM

COc1cc(C2=NOC(COc3ccc(-c4nnnn4-c4cc(OC)c(OC)c(OC)c4)cc3N)C2)ccc1O (stereo unspecified)
Activity [1]: 21.18% | Activity [2]: 1.65% | Activity [3]: 6.41% | IC50 [4]: 3.62 µM | Activity [5]: 70.71% | IC50 [6]: 2.01 µM

COc1ccc(C2=NOC(COc3ccc(-c4nnnn4-c4cc(OC)c(OC)c(OC)c4)cc3N)C2)cc1O (stereo unspecified)
Activity [1]: 21.81% | Activity [2]: 2.05% | Activity [3]: 6.27% | IC50 [4]: 3.38 µM | Activity [5]: 69.87% | IC50 [6]: 2.13 µM

COc1ccc(C2=NOC(COc3ccc(-c4nnnn4-c4cc(OC)c(OC)c(OC)c4)cc3N)C2)cc1[N+](=O)[O-] (stereo unspecified)
Activity [1]: 18.08% | Activity [2]: 1.84% | Activity [3]: 5.29% | IC50 [4]: 3.56 µM | Activity [5]: 74.79% | IC50 [6]: 2.22 µM

COc1ccc(F)c(C2=NOC(COc3ccc(-c4nnnn4-c4cc(OC)c(OC)c(OC)c4)cc3N)C2)c1 (stereo unspecified)
Activity [7]: Active | Activity [1]: 81.29% | Activity [2]: 2.55% | Activity [3]: 5.93% | IC50 [4]: 2.83 µM | inhibition [8]: Active | inhibition [9]: 90% | inhibition [10]: Active | Activity [5]: 10.23% | inhibition [11]: Active | IC50 [6]: 1.51 µM

COc1cc(-n2nnnc2-c2ccc(OCC3CC(c4cccc(Cl)c4)=NO3)c(N)c2)cc(OC)c1OC (stereo unspecified)
Activity [1]: 38.3% | Activity [2]: 6.83% | Activity [3]: 5.53% | IC50 [4]: 2.18 µM | Activity [5]: 49.34% | IC50 [6]: 1.34 µM

COc1ccc(OC)c(C2=NOC(COc3ccc(-c4nnnn4-c4cc(OC)c(OC)c(OC)c4)cc3N)C2)c1 (stereo unspecified)
Activity [1]: 18.63% | Activity [2]: 0.95% | Activity [3]: 5.02% | IC50 [4]: 3.5 µM | Activity [5]: 75.39% | IC50 [6]: 1.93 µM

COc1cc(-n2nnnc2-c2ccc(OCC3CC(c4ccccc4F)=NO3)c(N)c2)cc(OC)c1OC (stereo unspecified)
Activity [7]: Active | Activity [1]: 79.42% | Activity [2]: 3.19% | Activity [3]: 6.04% | IC50 [4]: 2.4 µM | inhibition [8]: Active | inhibition [9]: 92% | inhibition [10]: Active | Activity [5]: 11.34% | inhibition [11]: Active | IC50 [6]: 1.49 µM

COc1cc(C2=NOC(c3cc(OC)c(OC)c(OC)c3)C2)ccc1O (stereo unspecified)
Activity [1]: 27.86% | Activity [2]: 1.42% | Activity [3]: 4.25% | IC50 [4]: 3.6 µM | Activity [5]: 65.98% | IC50 [6]: 2.6 µM

COc1ccc(C2=NOC(COc3ccc(-c4nnnn4-c4cc(OC)c(OC)c(OC)c4)cc3N)C2)cc1OC (stereo unspecified)
Activity [1]: 20.18% | Activity [2]: 1.44% | Activity [3]: 5.31% | IC50 [4]: 3.57 µM | Activity [5]: 73.08% | IC50 [6]: 2.52 µM

COc1cc(-n2nnnc2-c2ccc(OCC3CC(c4ccc(OC)c(OC)c4OC)=NO3)c(N)c2)cc(OC)c1OC (stereo unspecified)
Activity [1]: 20.34% | Activity [2]: 1.08% | Activity [3]: 5.4% | IC50 [4]: 3.54 µM | Activity [5]: 73.18% | IC50 [6]: 2.03 µM

CC(=O)O[C@H]1C(=O)[C@@]2(C)[C@H]([C@H](OC(=O)c3ccccc3)[C@]3(O)C[C@H](OC(=O)[C@H](O)[C@@H](NC(=O)c4ccccc4)c4ccccc4)C(C)=C1C3(C)C)[C@]1(OC(C)=O)CO[C@@H]1C[C@@H]2O
inhibition [9]: 20%

COc1ccc(-c2nnnn2-c2cc(OC)c(OC)c(OC)c2)cc1N
Activity [1]: 23.1% | Activity [2]: 1.05% | Activity [3]: 3.47% | IC50 [4]: 3.17 µM | Activity [5]: 72.31% | IC50 [6]: 2.63 µM
